# Laboratory results: patent publication US11292821B2, “Peptides and combination of peptides for use in immunotherapy against lung cancer, including NSCLC, SCLC and other cancers” (Immatics Biotechnologies GmbH, priority 2017, dated 2022)
# System: HLA-A*24
# Test: MHC binding assay (UV-ligand exchange, β2m ELISA)
# Set-up: species or system human
row,"Peptide exchange (peptide exchange yield, MHC class I binding score)",Substance
1,“++++” (>75% = ++++),69 (IMPEKFEFW; listed as Homo sapiens) [compound 69]
2,“++++” (>75% = ++++),70 (PYTNYTFDF; listed as Homo sapiens) [compound 70]
3,“++++” (>75% = ++++),71 (SYMVLAPVF; listed as Homo sapiens) [compound 71]
4,“+++” (>50 = +++),73 (SYIGLPLTL; listed as Homo sapiens) [compound 73]
5,“++++” (>75% = ++++),74 (VYDQYFITL; listed as Homo sapiens) [compound 74]
6,“++++” (>75% = ++++),75 (NYIYSISVF; listed as Homo sapiens) [compound 75]
7,“+” (>10% = +),77 (AYTLLGHEFV; listed as Homo sapiens) [compound 77]
8,“++++” (>75% = ++++),78 (TWFPKTPMLF; listed as Homo sapiens) [compound 78]
9,“++++” (>75% = ++++),80 (YYSPLRDLL; listed as Homo sapiens) [compound 80]
10,“++++” (>75% = ++++),81 (LYPEGLRLL; listed as Homo sapiens) [compound 81]
11,“++++” (>75% = ++++),82 (RFLPSPVVI; listed as Homo sapiens) [compound 82]
12,“++++” (>75% = ++++),376 (KYVKDFHKF; listed as Homo sapiens) [compound 376]
13,“++++” (>75% = ++++),377 (VYVGAVNRI; listed as Homo sapiens) [compound 377]
14,“++++” (>75% = ++++),378 (KFLGPAEHLTF; listed as Homo sapiens) [compound 378]
15,“++++” (>75% = ++++),381 (TYSKKHFRI; listed as Homo sapiens) [compound 381]
16,“+++” (>50 = +++),382 (IYHSHHPTL; listed as Homo sapiens) [compound 382]
17,“++++” (>75% = ++++),385 (MYINEVERL; listed as Homo sapiens) [compound 385]
18,“+++” (>50 = +++),387 (RWLPQKNAAQF; listed as Homo sapiens) [compound 387]

# Further lines, the substance ahead of its results:
row,Substance,"Peptide exchange (peptide exchange yield, MHC class I binding score)"
1,22 (TQPGDWTLF; listed as Homo sapiens) [compound 22],“++++” (>75% = ++++)
2,23 (KFIISDWRF; listed as Homo sapiens) [compound 23],“++++” (>75% = ++++)
3,24 (MYPDLSELLM; listed as Homo sapiens) [compound 24],“++++” (>75% = ++++)
4,25 (SYNGYVFYL; listed as Homo sapiens) [compound 25],“++++” (>75% = ++++)
5,26 (KTPTNYYLF; listed as Homo sapiens) [compound 26],“++++” (>75% = ++++)
6,27 (NYTLYPITF; listed as Homo sapiens) [compound 27],“++++” (>75% = ++++)
7,28 (YYSIISHTL; listed as Homo sapiens) [compound 28],“++++” (>75% = ++++)
8,29 (VYPLLSRLYW; listed as Homo sapiens) [compound 29],“++++” (>75% = ++++)
9,30 (QYLPGWTVLF; listed as Homo sapiens) [compound 30],“++++” (>75% = ++++)
10,31 (QYQNVLTLW; listed as Homo sapiens) [compound 31],“++++” (>75% = ++++)
11,32 (SLPDLTPTF; listed as Homo sapiens) [compound 32],“++++” (>75% = ++++)
12,33 (KSSVIASLLF; listed as Homo sapiens) [compound 33],“+++” (>50 = +++)
13,34 (MQPRMFFLF; listed as Homo sapiens) [compound 34],“++++” (>75% = ++++)
14,35 (KYLEESVWL; listed as Homo sapiens) [compound 35],“++++” (>75% = ++++)
15,36 (KQMEDGHTLF; listed as Homo sapiens) [compound 36],“++” (>20% = ++)
16,37 (QWPWQASLQF; listed as Homo sapiens) [compound 37],“++++” (>75% = ++++)
17,38 (KYTNWKAFL; listed as Homo sapiens) [compound 38],“++++” (>75% = ++++)
18,39 (LIFMLANVF; listed as Homo sapiens) [compound 39],“+” (>10% = +)
19,40 (QYEPPSAPSTTF; listed as Homo sapiens) [compound 40],“+++” (>50 = +++)
20,42 (TLPNTIYRF; listed as Homo sapiens) [compound 42],“++++” (>75% = ++++)

row,Substance,"Peptide exchange (peptide exchange yield, MHC class I binding score)"
1,43 (IQMDEPMAF; listed as Homo sapiens) [compound 43],“+” (>10% = +)
2,44 (AYLSAVGTF; listed as Homo sapiens) [compound 44],“++++” (>75% = ++++)
3,45 (KYFVPPQLF; listed as Homo sapiens) [compound 45],“++++” (>75% = ++++)
4,46 (AFPVTSIFHTF; listed as Homo sapiens) [compound 46],“++++” (>75% = ++++)
5,47 (KYADYFLEV; listed as Homo sapiens) [compound 47],“++++” (>75% = ++++)
6,48 (VFIDHPVHLKF; listed as Homo sapiens) [compound 48],“++++” (>75% = ++++)
7,49 (LYISEVRNI; listed as Homo sapiens) [compound 49],“++++” (>75% = ++++)
8,50 (SYPELVKMVW; listed as Homo sapiens) [compound 50],“++++” (>75% = ++++)
9,51 (KYALLLQEL; listed as Homo sapiens) [compound 51],“++++” (>75% = ++++)
10,52 (KYMKIFHKF; listed as Homo sapiens) [compound 52],“++++” (>75% = ++++)
11,53 (KYITNLEDL; listed as Homo sapiens) [compound 53],“++++” (>75% = ++++)
12,54 (LLIKLLQTF; listed as Homo sapiens) [compound 54],“+++” (>50 = +++)
13,55 (RWMDQRLVF; listed as Homo sapiens) [compound 55],“++++” (>75% = ++++)
14,56 (VYMIEPLEL; listed as Homo sapiens) [compound 56],“++++” (>75% = ++++)
15,57 (YPSIIQEF; listed as Homo sapiens) [compound 57],“++++” (>75% = ++++)
16,58 (QFAAPLRGIYF; listed as Homo sapiens) [compound 58],“++++” (>75% = ++++)
17,63 (VMPSDSFFF; listed as Homo sapiens) [compound 63],“++++” (>75% = ++++)
18,64 (NYAIFDEGHML; listed as Homo sapiens) [compound 64],“++++” (>75% = ++++)
19,67 (RYPGKFYRV; listed as Homo sapiens) [compound 67],“++++” (>75% = ++++)
20,68 (IYQQIIQTY; listed as Homo sapiens) [compound 68],“++++” (>75% = ++++)
